By melting point is commonly meant the temperature, or range, at which the solid turns liquid.

`C[C@@H]1CN(c2ccc(C(F)(F)F)nc2)C[C@H](C)N1CC(=O)N1CC=C(c2cccc3ccoc23)CC1` [Compound 37, 1-(4-benzofuran-7-yl-3,6-dihydro-2H-pyridin-1-yl)-2-[(2S,6R)-2,6-dimethyl-4-(6-trifluoromethylpyridin-3-yl)piperazin-1-yl]ethanone]: the melting point lay in the range of 119 to 120 °C.

In turn, `Cc1cc2cc(C3=CCN(C(=O)CN4[C@H](C)CN(c5ncc(F)cn5)C[C@@H]4C)CC3)ccc2s1` [Compound 38, 2-[(2S,6R)-4-(5-fluoropyrimidin-2-yl)-2,6-dimethylpiperazin-1-yl]-1-[4-(2-methylbenzo[b]thiophen-5-yl)-3,6-dihydro-2H-pyridin-1-yl]ethanone] came in with a melting point of 205 to 206 °C.

For the molecule `Cc1cc2cc(C3=CCN(C(=O)CN4[C@H](C)CN(c5ccc(C(F)(F)F)nc5)C[C@@H]4C)CC3)ccc2s1` [Compound 39, 2-[(2S,6R)-2,6-dimethyl-4-(6-trifluoromethylpyridin-3-yl)piperazin-1-yl]-1-[4-(2-methylbenzo[b]thiophen-5-yl)-3,6-dihydro-2H-pyridin-1-yl]ethanone], the melting point was 217 to 218 °C.

As to `Cc1cc2cc(C3=CCN(C(=O)CN4[C@H](C)CN(c5cncnc5)C[C@@H]4C)CC3)ccc2s1` [Compound 40, 2-((2S,6R)-2,6-dimethyl-4-pyrimidin-5-ylpiperazin-1-yl)-1-[4-(2-methylbenzo[b]thiophen-5-yl)-3,6-dihydro-2H-pyridin-1-yl]ethanone], the melting point lay in the range of 191 to 192 °C.

In the case of `C[C@@H]1CN(c2cncnc2)C[C@H](C)N1CC(=O)N1CC=C(c2ccc3sccc3c2)CC1` [Compound 41, 1-(4-benzo[b]thiophen-5-yl-3,6-dihydro-2H-pyridin-1-yl)-2-((2S,6R)-2,6-dimethyl-4-pyrimidin-5-ylpiperazin-1-yl)ethanone], the melting point was in the range of 218 to 220 °C.

Take `O=C(CN1CCN(c2ccc(C(F)(F)F)cn2)C(=O)C1)N1CC=C(c2ccc3sccc3c2)CC1` [Compound 43, 4-[2-(4-benzo[b]thiophen-5-yl-3,6-dihydro-2H-pyridin-1-yl)-2-oxoethyl]-1-(5-trifluoromethylpyridin-2-yl)piperazin-2-one]: the melting point lay within 169 to 170 °C.

On to `C[C@@H]1CN(c2ccc(C(F)(F)F)nc2)C[C@H](C)N1CC(=O)N1CC=C(c2ccc3c(c2)OCCO3)CC1` [Compound 45, 1-[4-(2,3-dihydrobenzo[1,4]dioxin-6-yl)-3,6-dihydro-2H-pyridin-1-yl]-2-[(2S,6R)-2,6-dimethyl-4-(6-trifluoromethylpyridin-3-yl)piperazin-1-yl]ethanone], for which the melting point was in the range of 200 to 201 °C.

On to `O=C(CN1CCN(c2ccc(C(F)(F)F)cn2)CC1)N1CC=C(c2ccc3sccc3c2)CC1` [Compound 46, 1-(4-benzo[b]thiophen-5-yl-3,6-dihydro-2H-pyridin-1-yl)-2-[4-(5-trifluoromethylpyridin-2-yl)piperazin-1-yl)ethanone], for which the melting point lay within 170 to 171 °C.

With `C[C@@H]1CN(c2ccc(C(F)(F)F)nc2)C[C@H](C)N1CC(=O)N1CC=C(c2ccc3sccc3c2)CC1` [Compound 47, 1-(4-benzo[b]thiophen-5-yl-3,6-dihydro-2H-pyridin-1-yl)-2-[(2S,6R)-2,6-dimethyl-4-(6-trifluoromethylpyridin-3-yl)piperazin-1-yl)ethanone], the melting point lay in the range of 136 to 137 °C.

In turn, `O=C(CN1CCN(c2ccc(C(F)(F)F)cn2)C(=O)C1)N1CC=C(c2ccc3c(c2)OCCO3)CC1` [Compound 49, 4-{2-[4-(2,3-dihydrobenzo[1,4]dioxin-6-yl)-3,6-dihydro-2H-pyridin-1-yl]-2-oxoethyl}-1-(5-trifluoromethylpyridin-2-yl)piperazin-2-one] registered a melting point of 161 to 162 °C.

For `O=C(CN1CCN(c2ccc(C(F)(F)F)cn2)CC1)N1CC=C(c2cccc3ccsc23)CC1` [Compound 50, 1-(4-benzo[b]thiophen-7-yl-3,6-dihydro-2H-pyridin-1-yl)-2-[4-(5-trifluoromethylpyridin-2-yl)piperazin-1-yl]ethanone], the melting point lay in the range of 120 to 121 °C.

Take `COC(=O)c1ccc(N2C[C@@H](C)N(CC(=O)N3CC=C(c4ccc5sccc5c4)CC3)[C@@H](C)C2)nc1` [Compound 52, Methyl 6-{(3S,5R)-4-[2-(4-benzo[b]thiophen-5-yl-3,6-dihydro-2H-pyridin-1-yl)-2-oxoethyl]-3,5-dimethylpiperazin-1-yl}nicotinate]: the melting point is 130 to 132 °C.

Take `C[C@@H]1CN(c2cncnc2)C[C@H](C)N1CC(=O)N1CC=C(c2cccc3ccsc23)CC1` [Compound 55, 1-(4-benzo[b]thiophen-7-yl-3,6-dihydro-2H-pyridin-1-yl)-2-((2S,6R)-2,6-dimethyl-4-pyrimidin-5-ylpiperazin-1-yl)ethanone]: the melting point fell in the range of 195 to 196 °C.

Molecule `C[C@@H]1CN(c2ccc(C(=O)O)cn2)C[C@H](C)N1CC(=O)N1CC=C(c2cccc3ccoc23)CC1` [Compound 57, 6-{(3S,5R)-4-[2-(4-benzofuran-7-yl-3,6-dihydro-2H-pyridin-1-yl)-2-oxoethyl]-3,5-dimethylpiperazin-1-yl}nicotinic acid] came in with a melting point of 272 to 274 °C.

`O=C(CN1CCN(c2ccc(C(F)(F)F)cn2)C(=O)C1)N1CC=C(c2ccc3occc3c2)CC1` [Compound 60, 4-[2-(4-benzofuran-5-yl-3,6-dihydro-2H-pyridin-1-yl)-2-oxoethyl]-1-(5-trifluoromethylpyridin-2-yl)piperazin-2-one] yielded a melting point of 154 to 155 °C.

On to `COC(=O)c1ccc(N2C[C@@H](C)N(CC(=O)N3CC=C(c4ccc5sc(C)cc5c4)CC3)[C@@H](C)C2)nc1` [Compound 61, Methyl 6-((3S,5R)-3,5-dimethyl-4-{2-[4-(2-methylbenzo[b]thiophen-5-yl)-3,6-dihydro-2H-pyridin-1-yl]-2-oxoethyl}piperazin-1-yl)nicotinate], for which the melting point was 148 to 150 °C.

`C[C@@H]1CN(c2ccc(C(F)(F)F)cn2)C[C@H](C)N1CC(=O)N1CCC=C(c2cccc3ccoc23)C1` [Compound 63, 1-(5-benzofuran-7-yl-3,6-dihydro-2H-pyridin-1-yl)-2-[(2S,6R)-2,6-dimethyl-4-(5-trifluoromethylpyridin-2-yl)piperazin-1-yl]ethanone] came in with a melting point of 129 to 130 °C.

In turn, `CCCc1cc2cc(C3=CCN(C(=O)CN4[C@H](C)CN(c5ccc(C(F)(F)F)cn5)C[C@@H]4C)CC3)ccc2s1` [Compound 68, 2-[(2S,6R)-2,6-dimethyl-4-(5-trifluoromethylpyridin-2-yl)piperazin-1-yl]-1-[4-(2-propylbenzo[b]thiophen-5-yl)-3,6-dihydro-2H-pyridin-1-yl]ethanone] showed a melting point of 157 to 159 °C.

Consider `O=C(CN1CCN(c2ccc(C(F)(F)F)cn2)C(=O)C1)N1CC=C(c2cccc3ccoc23)C1` [Compound 83, 4-[2-(3-benzofuran-7-yl-2,5-dihydropyrrol-1-yl)-2-oxoethyl]-1-(5-trifluoromethylpyridin-2-yl)piperazin-2-one], for which the melting point lay in the range of 184 to 186 °C.

`C[C@@H]1CN(c2ncc(C(F)(F)F)cc2Cl)C[C@H](C)N1CC(=O)N1CC=C(c2cccc3ccoc23)CC1` [Compound 92, 1-(4-benzofuran-7-yl-3,6-dihydro-2H-pyridin-1-yl)-2-[(2S,6R)-4-(3-chloro-5-trifluoromethylpyridin-2-yl)-2,6-dimethylpiperazin-1-yl]ethanone]: the melting point was 130 to 131 °C.

In turn, `C[C@@H]1CN(c2ccc(C(F)(F)F)cn2)C[C@H](C)N1CC(=O)N1CC=C(c2c[nH]c3ccccc23)CC1` [Compound 97, 2-[(2S,6R)-2,6-dimethyl-4-(5-trifluoromethylpyridin-2-yl)piperazin-1-yl]-1-[4-(1H-indol-3-yl)-3,6-dihydro-2H-pyridin-1-yl]ethanone] registered a melting point of 198 to 200 °C.

Regarding `O=C(CN1CCN(c2ccc3ccccc3n2)CC1)N1CC=C(c2c[nH]c3ccccc23)CC1` [Compound 98, 1-[4-(1H-indol-3-yl)-3,6-dihydro-2H-pyridin-1-yl]-2-(4-quinolin-2-ylpiperazin-1-yl)ethanone], the melting point fell in the range of 213 to 215 °C.

As to `C[C@@H]1CN(c2ncc(F)cn2)C[C@H](C)N1CC(=O)N1CC=C(c2c[nH]c3ccccc23)CC1` [Compound 100, 2-[(2S,6R)-4-(5-fluoropyrimidin-2-yl)-2,6-dimethylpiperazin-1-yl]-1-[4-(1H-indol-3-yl)-3,6-dihydro-2H-pyridin-1-yl]ethanone], the melting point lay within 235 to 237 °C.

In turn, `C[C@@H]1CN(c2ccc(Cl)cn2)C[C@H](C)N1CC(=O)N1CC=C(c2cccc3ccsc23)CC1` [Compound 101, 1-(4-benzo[b]thiophen-7-yl-3,6-dihydro-2H-pyridin-1-yl)-2-[(2S,6R)-4-(5-chloropyridin-2-yl)-2,6-dimethylpiperazin-1-yl]ethanone] came in with a melting point of 157 to 158 °C.

The molecule `O=C(CN1CCN(c2ccc3ccccc3n2)CC1)N1CC=C(c2cccc3ccsc23)CC1` [Compound 105, 1-(4-benzo[b]thiophen-7-yl-3,6-dihydro-2H-pyridin-1-yl)-2-(4-quinolin-2-ylpiperazin-1-yl)ethanone] displayed a melting point of 177 to 178 °C.

Consider `O=C(CN1CCN(c2ccnc3cc(Cl)ccc23)CC1)N1CC=C(c2cccc3ccsc23)CC1` [Compound 106, 1-(4-benzo[b]thiophen-7-yl-3,6-dihydro-2H-pyridin-1-yl)-2-[4-(7-chloroquinolin-4-yl)piperazin-1-yl]ethanone], for which the melting point is 90 to 91 °C.

`O=C(CN1CCN(c2cccc(Cl)n2)CC1)N1CC=C(c2cccc3ccsc23)CC1` [Compound 107, 1-(4-benzo[b]thiophen-7-yl-3,6-dihydro-2H-pyridin-1-yl)-2-[4-(6-chloropyridin-2-yl)piperazin-1-yl]ethanone]: the melting point lay in the range of 92 to 93 °C.

The molecule `O=C(CN1CCN(c2cccc(Cl)n2)CC1)N1CC=C(c2c[nH]c3ccccc23)CC1` [Compound 108, 2-[4-(6-chloropyridin-2-yl)piperazin-1-yl]-1-[4-(1H-indol-3-yl)-3,6-dihydro-2H-pyridin-1-yl]ethanone] displayed a melting point of 202 to 204 °C.

These data come from patent US8518947B2, “(Heterocycle/tetrahydropyridine)-(piperazinyl)-1-alcanone and (heterocycle/dihydropyrrolidine)-(piperazinyl)-1-alcanone derivatives, and use thereof as p75 inhibitors” (Sanofi, priority 2009, dated 2013).
